Laboratory results from patent US20230137943A1, “PHOTOPROXIMITY PROFILING OF PROTEIN-PROTEIN INTERACTIONS IN CELLS” (The University of Chicago, priority 2019, published 2023).

Target: T1, SNAP-FLAG/α-FLAG antibody complex (Homo sapiens, UniProt P16455, A127T/A154D/C150Q/C62A/E30R/G131K/G132T/G153L/K125A/K32I/L33F/M134L/N157G/Q115S/Q116H/R128A/R135S/S151G/S152D/S159E)
T1 construct: host or cells: clarified lysate of HEK293T cells transiently or stably expressing SnapFlag
T1 sequence (P16455 1-182 E30R/K32I/L33F/C62A/Q115S/Q116H/K125A/A127T/R128A/G131K/G132T/M134L/R135S/C150Q/S151G/S152D/G153L/A154D/N157G/S159E limits assumed): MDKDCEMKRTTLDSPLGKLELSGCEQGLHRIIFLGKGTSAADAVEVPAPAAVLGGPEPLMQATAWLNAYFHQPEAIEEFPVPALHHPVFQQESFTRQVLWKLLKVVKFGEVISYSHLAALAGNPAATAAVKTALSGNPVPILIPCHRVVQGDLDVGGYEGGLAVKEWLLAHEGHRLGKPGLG
Assay: Proximity-labeling assay in cell lysate (anti-biotin / anti-mouse Western blot)
Format: biochemical
Settings: 500 nM probe; for Proximal labeling of heavy and light chains upon irradiation: 365 nm light 10 minutes (FIG. 4C, FIG. 12B)
Description: Proximity-labeling assays: Clarified cell lysate from HEK293T cells either transiently (see FIG. 4B) or stably (see FIG. 4C) expressing SNAP-Tag (NEB #N9183S; New England Biolabs, Ipswich, Mass., United States of America) or SnapFlag was normalized to 1 mg/mL and 250 μL aliquots incubated in a microcentrifuge tube with either 500 nM of PP1. PP2, or DMSO for 1 hour at 37° C. Washed anti-FLAG M2 affinity gel, 40 μL of a 50% slurry, was transferred to each reaction in 750 μL of DPBS and the resultant suspension left to rotate overnight at 4° C. (Sigma #A2220; Sigma-Aldrich, St. Louis, Mo., United States of America). Samples were then spun down at 4000×g, supernatant aspirated, and the resin washed with 1M urea in DPBS (1 mL×8) followed by DPBS (1 mL). After being resuspended in 100 μL of DPBS, the samples were placed on ice where they were irradiated with 365 nm light for 10 minutes (SPECTROLINKER™ XL-1500a UV crosslinker, Spectronics Corporation, Westbury, N.Y., United States of America). Once irradiated, the beads were washed with 100 mM pH 3.5 glycine buffer (100 μL×2) and DPBS (1 mL). To elute the remaining SNAP-FLAG and resin-bound FLAG-antibody the beads were boiled for 5 minutes at 95° C. in 20 μL 4×-loading buffer containing 8% SDS and 400 mM DTT. After which, 60 μL of DPBS was added and the suspension boiled at 95° C. for an additional 5 minutes. The samples were then run on SDS-PAGE gel and transferred to nitrocellulose where they were stained with anti-mouse IR dye (Li-cor #926-68072; Li-cor Biosciences, Lincoln, Nebr., United States of America) and streptavidin IR dye (Li-cor #926-32230; Li-cor Biosciences, Lincoln, Nebr., United States of America). Bands corresponding to biotinylated proteins and the FLAG antibody were visualized using an Odyssey infrared imager (Li-cor Biosciences, Lincoln, Nebr., United States of America).
To study if proximal protein interactors could be labeled in response to the dual photoactivation of PP1 in vitro, the interaction between SNAP-FLAG protein and an α-FLAG monoclonal antibody (mAb) was examined in cell lysate. In this assay, proximal biotinylation of both heavy and light chains of the antibody was expected, as well as self-labeling of the SNAP-FLAG protein, under conditions where the protein complex is formed and the PP1 probe is photoactivated. To test this hypothesis in the presence and absence of the protein-protein complex, SNAP protein that contained or lacked the FLAG epitope was treated with PP1 probe, followed by incubation with α-FLAG mAb, bead-based pulldown of the complexes, and subsequent photoactivation. […] The requirement for photoactivation of PP1, as well as a related probe PP2 (see FIG. 6) was tested by forming the SNAP-FLAG/α-FLAG complexes, and then comparing protein biotinylation with or without irradiation.
To study if proximal protein interactors could be labeled in response to the dual photoactivation of AC1 (see FIG. 12A) in vitro, the interaction between SNAP-FLAG protein and an α-FLAG monoclonal antibody (mAb) was examined in cell lysate. Briefly, 250 μL aliquots of cell lysate (HEK293T, SNAP-Flag) was incubated in a microcentrifuge tube with either 500 nM of photoprobe, or DMSO for 1 hour at 37° C. Washed anti-FLAG M2 affinity gel, 40 μL of a 50% slurry, was transferred to each reaction in 750 μL of DPBS and the resultant suspension left to rotate overnight at 4° C. (Sigma #A2220; Sigma-Aldrich, St. Louis, Mo., United States of America). Samples were then spun down at 4000×g, supernatant aspirated, and the resin washed with 1M urea in DPBS (1 mL×8) followed by DPBS (1 mL). After being resuspended in 250 μL of DPBS, the +UV samples were placed on ice where they were irradiated with 365 nm light for 10 minutes (SPECTROLINKER™ XL-1500a UV crosslinker, Spectronics Corporation, Westbury, N.Y., United States of America). Once irradiated, the beads were washed with 1 M Urea (1 mL×2) and DPBS (1 mL×2). […]

SMILES	Proximal labeling of heavy and light chains upon irradiation	Biotinylation of α-FLAG antibody chains with SNAP-FLAG protein (FLAG epitope present, 365 nm 10 minutes (FIG. 4B))	Biotinylation with SNAP protein that lacked the FLAG sequence (no FLAG epitope, 365 nm 10 minutes (FIG. 4B))	Proximal labeling of heavy/light chain without irradiation (not exposed to 365 nm light (FIG. 4C))
COc1cc(COC(=O)NC(CCCCNC(=O)CCC2(C)N=N2)C(=O)NCCCCC2SCC3NC(=O)NC32)c([N+](=O)[O-])cc1OCCCC(=O)NCc1ccc(COc2nc(N)nc3[nH]cnc23)cc1 (centres unmarked) [AC1]	labels a proximal protein binding partner			
COc1cc(C(C)OC(=O)NC(CCCCNC(=O)CCC2(C)N=N2)C(=O)NCCCCCNC(=O)CCCCC2SCC3NC(=O)NC32)c([N+](=O)[O-])cc1OCCCC(=O)NCc1ccc(COc2nc(N)nc3[nH]cnc23)cc1 (centres unmarked) [PP1]	a discrete biotinylated band was formed on both heavy and light chains	robust biotinylation of both heavy and light chain fragments	no protein-biotinylation	No proximal labeling
